From patent EP0888340B1, “4-(BENZO-1,3-DIOXOLYL)-PYRROLIDINE-3-CARBOXYLIC ACID DERIVATIVES AS ENDOTHELIN ANTAGONISTS” (Abbott Laboratories, priority 1996, dated 1997)
Where a name gives a salt, the structure may show the parent alone.

Target: T1, ETB Receptor (Sus scrofa, UniProt P35463)
T1 construct: Porcine cerebellum was homogenized in 25 volumes (w/v) of 10 mM Hepes (pH 7.4); from tissue; host or cells: porcine cerebellum membranes
T1 sequence (P35463 27-443): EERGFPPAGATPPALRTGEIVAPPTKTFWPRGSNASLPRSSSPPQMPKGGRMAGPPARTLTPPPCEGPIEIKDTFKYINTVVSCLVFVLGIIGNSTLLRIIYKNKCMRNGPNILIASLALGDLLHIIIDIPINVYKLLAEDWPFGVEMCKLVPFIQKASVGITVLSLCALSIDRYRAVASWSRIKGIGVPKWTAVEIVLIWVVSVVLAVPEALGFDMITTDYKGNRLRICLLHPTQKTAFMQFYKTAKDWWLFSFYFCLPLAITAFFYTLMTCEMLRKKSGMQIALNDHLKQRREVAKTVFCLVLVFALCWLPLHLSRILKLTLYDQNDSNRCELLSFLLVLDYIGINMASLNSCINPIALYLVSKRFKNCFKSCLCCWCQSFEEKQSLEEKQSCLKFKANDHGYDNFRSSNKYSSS
Test: ETB receptor binding assay: [125I]ET-3 binding to membranes
Conditions: test compound 1 µM; displacement of 0.1 nM [125I]ET-3; Porcine cerebellum membranes; 4 hours at 25 °C
Description: Preparation of membranes from Porcine cerebellum:
Porcine cerebellum was homogenized in 25 volumes (w/v) of 10 mM Hepes (pH 7.4) containing 0.25 M sucrose and protease inhibitors (3 mM EDTA, 0.1 mM PMSF, and 5 µg/ml Pepstatin A) by 3-10 sec polytron at 13,500 rpm with 10 sec intervals. The mixture was centrifuged at 1000xg for 10 min. The supernatant was collected and centrifuged at 30,000xg for 30 min. The precipitate was resuspended in Buffer A (20 mM Tris, 100 mM NaCl, 10 mM MgCl2, pH 7.4) containing the aforementioned protease inhibitors and centrifuged again. The final pellet was resuspended in Buffer A containing protease inhibitors and stored at -80°C until used. Protein content was determined by the Bio-Rad dye-binding protein assay.
[^125I]ET-3 binding to membranes:
Binding assays were performed in 96-well microtiter plates pretreated with 0.1% BSA. Membranes prepared from cells were diluted ∼100 fold in Buffer B (20 mM Tris, 100 mM NaCl, 10 mM MgCl2, pH 7.4, with 0.2% BSA, 0.1 mM PMSF, 5 µg/mL Pepstatin A, 0.025% bacitracin, and 3 mM EDTA) to a final concentration of 0.2 mg/mL of protein. In competition studies, membranes (0.02 mg) were incubated with 0.1 nM of [^125I]ET-3 in Buffer B (final volume: 0.2 mL) in the presence of increasing concentrations of unlabeled ET-3 or a test compound for 4 hours at 25 °C. After incubation, unbound ligands were separated from bound ligands by a vacuum filtration method using glass-fiber filter strips in PHD cell harvesters (Cambridge Technology, Inc., MA), followed by washing the filter strips with saline (1 mL) for three times. Nonspecific binding was determined in the presence of 1 µM ET-1. The per cent inhibition at a concentration of 1 µM is shown. […]

inhibition at 1 µM [%] | SMILES
96.4 | COc1ccc([C@H]2[C@H](C(=O)O)[C@@H](c3ccc4c(c3)OCO4)CN2CC(=O)Nc2c(C)cc(C)cc2C)cc1 (racemic) [Example 1, trans,trans-2-(4-Methoxyphenyl)-4-(1,3-benzodioxol-5-yl)-1-((2,4,6-trimethyl)phenylaminocarbonylmethyl)-pyrrolidine-3-carboxylic acid]
91.5 | COc1ccc([C@H]2[C@H](C(=O)O)[C@@H](c3ccc4c(c3)OCO4)CN2CC(=O)Nc2c(C)cc(C)cc2C)cc1F (racemic) [Example 2, trans,trans-2-(3-Fluoro-4-methoxyphenyl)-4-(1,3-benzodioxol-5-yl)-1-((2,4,6-trimethyl)phenylaminocarbonylmethyl)-pyrrolidine-3-carboxylic acid]
82.1 | CCCOc1ccc([C@H]2[C@H](C(=O)O)[C@@H](c3ccc4c(c3)OCO4)CN2CC(=O)Nc2c(C)cc(C)cc2C)cc1 (racemic) [Example 3, trans,trans-2-(4-Propoxyphenyl)-4-(1,3-benzodioxol-5-yl)-1-((2,4,6-trimethyl)phenylaminocarbonylmethyl)-pyrrolidine-3-carboxylic acid]
94 | CCc1cccc(CC)c1NC(=O)CN1C[C@H](c2ccc3c(c2)OCO3)[C@@H](C(=O)O)[C@@H]1c1ccc(OC)cc1 (racemic) [Example 4, trans,trans-2-(4-Methoxyphenyl)-4-(1,3-benzodioxol-5-yl)-1-((2,6-diethyl)phenylaminocarbonylmethyl)-pyrrolidine-3-carboxylic acid]
96.5 | CCCOc1ccc([C@H]2[C@H](C(=O)O)[C@@H](c3ccc4c(c3)OCO4)CN2CC(=O)Nc2c(CC)cccc2CC)cc1 (racemic) [Example 5, trans,trans-2-(4-Propoxyphenyl)-4-(1,3-benzodioxol-5-yl)-1-((2,6-diethyl)phenylaminocarbonylmethyl)-pyrrolidine-3-carboxylic acid]
92.9 | CCc1cccc(CC)c1NC(=O)CN1C[C@H](c2ccc3c(c2)OCO3)[C@@H](C(=O)O)[C@@H]1c1ccc(OC)c(F)c1 (racemic) [Example 6, trans,trans-2-(3-Fluoro-4-methoxyphenyl)-4-(1,3-benzodioxol-5-yl)-1-((2,6-diethyl)phenylaminocarbonylmethyl)-pyrrolidine-3-carboxylic acid]
94.5 | CCOc1ccc([C@H]2[C@H](C(=O)O)[C@@H](c3ccc4c(c3)OCO4)CN2CC(=O)Nc2c(CC)cccc2CC)cc1F (racemic) [Example 7, trans,trans-2-(3-Fluoro-4-ethoxyphenyl)-4-(1,3-benzodioxol-5-yl)-1-((2,6-diethyl)phenylaminocarbonylmethyl)-pyrrolidine-3-carboxylic acid]
93.6 | CCc1cccc(CC)c1NC(=O)CN1C[C@H](c2cc(OC)c3c(c2)OCO3)[C@@H](C(=O)O)[C@@H]1c1ccc(OC)c(F)c1 (racemic) [Example 8, trans,trans-2-(3-Fluoro-4-methoxyphenyl)-4-(7-methoxy-1,3-benzodioxol-5-yl)-1-((2,6-diethyl)phenylaminocarbonylmethyl)-pyrrolidine-3-carboxylic acid]
94.8 | CCCOc1ccc([C@H]2[C@H](C(=O)O)[C@@H](c3ccc4c(c3)OCO4)CN2CC(=O)Nc2c(CC)cccc2CC)cc1OC (racemic) [Example 9, trans,trans-2-(3-methoxy-4-propoxyphenyl)-4-(1,3-benzodioxol-5-yl)-1-((2,6-diethyl)phenylaminocarbonylmethyl)-pyrrolidine-3-carboxylic acid]
95.2 | CCOc1ccc([C@H]2[C@H](C(=O)O)[C@@H](c3ccc4c(c3)OCO4)CN2CC(=O)Nc2c(CC)cccc2CC)cc1 (racemic) [Example 10, trans,trans-2-(4-ethoxyphenyl)-4-(1,3-benzodioxol-5-yl)-1-((2,6-diethyl)phenylaminocarbonylmethyl)-pyrrolidine-3-carboxylic acid]
96 | COc1ccc([C@H]2[C@H](C(=O)O)[C@@H](c3ccc4c(c3)OCO4)CN2CC(=O)Nc2c(C)cccc2C)cc1 (racemic) [Example 11, trans,trans-2-(4-methoxyphenyl)-4-(1,3-benzodioxol-5-yl)-1-((2,6-dimethyl)phenylaminocarbonylmethyl)-pyrrolidine-3-carboxylic acid]
96.7 | CCCOc1ccc([C@H]2[C@H](C(=O)O)[C@@H](c3cc(OC)c4c(c3)OCO4)CN2CC(=O)Nc2c(CC)cccc2CC)cc1 (racemic) [Example 12, trans,trans-2-(4-propoxyphenyl)-4-(7-methoxy-1,3-benzodioxol-5-yl)-1-((2,6-diethyl)phenylaminocarbonylmethyl)-pyrrolidine-3-carboxylic acid]
91.3 | CCCOc1ccc([C@H]2[C@H](C(=O)O)[C@@H](c3cc(OC)c4c(c3)OCO4)CN2CC(=O)Nc2c(CC)cccc2CC)cc1OC [Example 13, trans,trans-2-(3-methoxy-4-propoxyphenyl)-4-(7-methoxy-1,3-benzodioxol-5-yl)-1-((2,6-diethyl)phenylaminocarbonylmethyl)-pyrrolidine-3-carboxylic acid]
96.6 | COc1ccc([C@H]2[C@H](C(=O)O)[C@@H](c3ccc4c(c3)OCO4)CN2CC(=O)Nc2c(Br)cccc2Br)cc1 [Example 14, trans,trans-2-(4-methoxyphenyl)-4-(1,3-benzodioxol-5-yl)-1-((2,6-dibromo)phenylaminocarbonylmethyl)-pyrrolidine-3-carboxylic acid]
93.4 | CCc1cccc(CC)c1NC(=O)CN1C[C@H](c2ccc3c(c2)OCO3)[C@@H](C(=O)O)[C@@H]1c1ccc(OC)cc1 [Example 15, [2R,3R,4S]2-(4-Methoxyphenyl)-4-(1,3-benzodioxol-5-yl)-1-(N-(2,6-diethyl)phenylaminocarbonylmethyl)-pyrrolidine-3-carboxylic acid, hydrochloride salt]
92.3 | COc1ccc([C@H]2[C@H](C(=O)O)[C@@H](c3ccc4c(c3)OCO4)CN2CC(=O)Nc2c(OC)cccc2OC)cc1 [Example 16, trans,trans-2-(4-methoxyphenyl)-4-(1,3-benzodioxol-5-yl)-1-((2,6-dimethoxy)phenylaminocarbonylmethyl)-pyrrolidine-3-carboxylic acid]
97.1 | CCc1cc(Br)cc(CC)c1NC(=O)CN1C[C@H](c2ccc3c(c2)OCO3)[C@@H](C(=O)O)[C@@H]1c1ccc(OC)cc1 [Example 17, trans,trans-2-(4-methoxyphenyl)-4-(1,3-benzodioxol-5-yl)-1-((4-bromo-2,6-diethyl)phenylaminocarbonylmethyl)-pyrrolidine-3-carboxylic acid]
94.9 | CCc1cccc(C)c1NC(=O)CN1C[C@H](c2ccc3c(c2)OCO3)[C@@H](C(=O)O)[C@@H]1c1ccc(OC)cc1 [Example 18, trans,trans-2-(4-methoxyphenyl)-4-(1,3-benzodioxol-5-yl)-1-((2-ethyl-6-methyl)phenylaminocarbonylmethyl)-pyrrolidine-3-carboxylic acid]
94.9 | CCc1cc(CC)c(NC(=O)CN2C[C@H](c3ccc4c(c3)OCO4)[C@@H](C(=O)O)[C@@H]2c2ccc(OC)cc2)c(CC)c1 [Example 19, trans,trans-2-(4-methoxyphenyl)-4-(1,3-benzodioxol-5-yl)-1-((2,4,6-triethyl)phenylaminocarbonylmethyl)-pyrrolidine-3-carboxylic acid]
95.5 | CCCOc1ccc(C2C(C(=O)O)C(c3ccc4c(c3)OCO4)CN2CC(=O)Nc2c(CC)cccc2CC)cc1 [Example 20, [2R,3R,4S]2-(4-Propoxyphenyl)-4-(1,3-benzodioxol-5-yl)-1-(N-((2,6-diethyl)phenylaminocarbonylmethyl)-pyrrolidine-3-carboxylic acid]
97.1 | COc1ccc([C@H]2[C@H](C(=O)O)[C@@H](c3ccc4c(c3)OCO4)CN2CC(=O)Nc2c(C(C)C)cccc2C(C)C)cc1 [Example 21, trans,trans-2-(4-methoxyphenyl)-4-(1,3-benzodioxol-5-yl)-1-((2,6-diisopropyl)phenylaminocarbonylmethyl)-pyrrolidine-3-carboxylic acid]
